Data on one compound can be found in patent publication US20110224256A1, “T[…] THE TREATMENT OF PSYCHIATRIC DISORDERS” (priority 2008, published 2011).

One assay deals with Sprague-Dawley male rats. Briefly: rCBV by MRI with MION contrast after MPH challenge in adulthood. It is filed as in vivo. The procedure:
MRI was conducted in two groups of animals (MPH-treated or VEH treated; n=7) at approximately 60 days old. Functional changes in rCBV were determined by drug-induced alterations following paramagnetic contrast agent […] iron oxide nanocolloid (MION) in anesthetized treated subjects (Chen et al., 2001). All experiments were performed at 2 T or 4.7 T on a GE Omega CSI instrument (GE, Fremont, Calif., USA) using a home-built surface coil for transmit-receive and immobilization of the head using a rigid plastic head holder. All VEH/MPH subjects were matched for scanner strength to control for any possible differences due to magnet strength (Mandeville et al., Magn. Reson. Med., 52:1272-1281 (2004)). […]
According to standard methods, 20 baseline images were collected, followed by a 10 mg/kg injection of MION (an iron particle-based contrast agent that produces long-lasting intravascular contrast for T2* contrast measures) and an additional 20 baseline images. […] Images were measured serially with a temporal resolution of 2 min.
All functional images within each condition were registered onto the same standard brain template to facilitate comparisons between the experimental groups. Registration parameters were determined for each functional scan using a single full-brain image set that is the average of all baseline time points prior to drug injection. […]

A further assay deals with BDNF. As to the kind of experiment: BDNF mRNA and protein in MPH-exposed subjects after cocaine challenge. It is filed as in vivo, rats. The following applies: in response to cocaine challenge, preliminary, data not shown. The source says: Changes in D3 expression and function may signal a sensitive period of development, when drug imprinting is likely to occur (Andersen, Trends Pharmacol. Sci., 26:237-243 (2005)). Drug-induced perturbations before the completion of dopamine receptor development may prevent these developmental rearrangements.

Counter-ions that a name gives are not always drawn.

`COC(=O)C(c1ccccc1)C1CCCCN1` (stereo not drawn) [MPH, d,l-Methylphenidate HCl]: the “rCBV change after MPH challenge in adulthood” value with Sprague-Dawley male rats (MPFCx, juvenile MPH 2 mg/kg twice daily P20-P35 vs VEH-treated, 2 mg/kg i.v. MPH challenge) is “significantly increased”. The “enduring effects of juvenile exposure on rCBV” value with Sprague-Dawley male rats (dorsolateral PFCx or caudate putamen, juvenile MPH exposure) is “no significant enduring effects”. In addition, in the assay on BDNF, the “BDNF mRNA” value is on record as “reduced” and the BDNF protein levels entry is listed as “modestly, but significantly, lower”.
